Reference: patent publication US20070037752A1, “Novel alanyl-amino peptidase inhibitors for functionally influencing different cells and treating immunological, inflammatory, neuronal, and other diseases” (priority 2003, published 2007)

Each molecule was assayed against alanyl aminopeptidases (APN) (Homo sapiens, UniProt P15144) (assay: Inhibition of alanyl aminopeptidase enzymatic activity, fluorogenic substrate (Ala)2-rhodamine 110). Details: Table 1, unstarred values; read-out: IC50APN.
alanyl aminopeptidases (APN), sequence (P15144 whole entry, species assumed): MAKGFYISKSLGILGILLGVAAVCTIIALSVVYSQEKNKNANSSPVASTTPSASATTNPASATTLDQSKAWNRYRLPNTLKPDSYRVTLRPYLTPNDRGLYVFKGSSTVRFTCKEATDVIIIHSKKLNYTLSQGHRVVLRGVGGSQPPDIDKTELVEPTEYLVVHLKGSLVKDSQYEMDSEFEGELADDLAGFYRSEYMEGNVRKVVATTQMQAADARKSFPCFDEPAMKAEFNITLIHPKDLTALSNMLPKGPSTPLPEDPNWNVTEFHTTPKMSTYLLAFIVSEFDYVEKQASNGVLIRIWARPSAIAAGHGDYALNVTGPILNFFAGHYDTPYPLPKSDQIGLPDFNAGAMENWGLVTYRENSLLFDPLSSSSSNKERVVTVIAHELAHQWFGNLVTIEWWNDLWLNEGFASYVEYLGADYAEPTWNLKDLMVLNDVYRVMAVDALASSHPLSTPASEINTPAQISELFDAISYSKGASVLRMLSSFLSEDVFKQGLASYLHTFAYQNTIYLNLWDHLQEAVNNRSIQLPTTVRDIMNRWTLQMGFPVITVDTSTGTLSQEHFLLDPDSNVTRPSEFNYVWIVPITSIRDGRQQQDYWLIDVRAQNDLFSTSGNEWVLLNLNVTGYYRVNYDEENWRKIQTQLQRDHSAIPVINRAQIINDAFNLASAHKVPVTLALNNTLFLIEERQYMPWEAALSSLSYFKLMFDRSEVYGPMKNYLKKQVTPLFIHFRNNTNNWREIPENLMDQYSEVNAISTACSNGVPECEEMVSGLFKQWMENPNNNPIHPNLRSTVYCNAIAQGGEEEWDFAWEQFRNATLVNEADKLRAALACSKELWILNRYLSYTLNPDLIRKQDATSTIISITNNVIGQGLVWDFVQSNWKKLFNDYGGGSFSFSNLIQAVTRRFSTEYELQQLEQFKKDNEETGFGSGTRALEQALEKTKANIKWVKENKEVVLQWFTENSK
Assay type: biochemical
Procedure: The inhibition characteristics measured are referred to as IC-50 values or ID50 values (the latter marked with “*”) for said enzyme. The enzymatic activity was determined by means of the fluorogenic substrate/product (Ala)2-rhodamine 110.
Molecule `N#CCCCCCCCCC(=O)NO` [A1.015] has an IC50 of 80.6 µM.
`Cc1cc(Cl)ccc1OCCC(=O)NO` [A1.002] showed an IC50 of 5.6 µM.
Molecule `O=C(CCCCCN1C(=O)c2cccc3cccc(c23)C1=O)NO` [A1.009] has an IC50 of 14.1 µM.
Work on `CC(CCc1ccccc1)C(=O)NO` (centres unmarked) [A1.013] yielded an IC50 of 25.2 µM.

Same assay, conditions: Table 3, starred values = ID50; read-out: ID50 APN (values marked with *)
With `C/C(=N\NC(=O)COc1ccc(C)cc1[N+](=O)[O-])c1ccco1` [A3.351] the IC50 was 422 µM.
`CC(=O)Oc1ccc2c(=O)c(-c3cnn(-c4ccccc4)c3)c(C(F)(F)F)oc2c1OC(C)=O` [A3.325] showed an IC50 of 134 µM.
Work on `CCOc1ccc(C(=O)N/N=C(/C)c2ccco2)cc1` [A3.352] yielded an IC50 of 451 µM.
`O=C(N/N=C/c1ccco1)c1ccc(NCc2ccccc2)cc1` [A3.346] showed an IC50 of 294 µM.
In the case of `COc1ccc(C2C(C(=O)c3ccccc3)C(c3ccccc3)C(C(=O)NCc3ccc(F)cc3)N2C(=O)NC2CCCCC2)cc1` (centres unmarked) [A3.342], the IC50 is reported as 231 µM.
`CCOC(=O)c1ncn(C(=O)OC)c1N` [A3.002] showed an IC50 of 0.9 µM.
`O=C1C(Cc2ccc(O)cc2)NC(=S)N1Cc1ccccc1` (centres unmarked) [A3.145] showed an IC50 of 23.7 µM.
Molecule `O=C(CNC(=O)c1cccc(F)c1)N/N=C/c1ccco1` [A3.333] has an IC50 of 155 µM.
`O=C(CNC(=O)c1ccccc1)N/N=C/c1ccco1` [A3.259] was tested, and the IC50 was 49.4 µM.

Same assay, conditions: Table 3, unstarred values; read-out: IC50APN
`O=C(C1c2ccccc2Oc2ccccc21)n1cc(Cl)cn1` [A3.179] gave an IC50 of 29.1 µM.
With `O=C(N/N=C/c1ccco1)c1cc(-c2ccco2)n[nH]1` [A3.113] the IC50 was 20.9 µM.
Work on `Cc1ccccc1NC(=O)C1C(c2cccs2)C(C#N)=C(SCC(=O)Nc2ccc(Br)cc2)NC1(C)O` (centres unmarked) [A3.204] yielded an IC50 of 33.9 µM.
Work on `CCOc1ccc(S(=O)(=O)N2CCCCC2)cc1-c1nc2c(C(C)(C)C)nn(C)c2c(=O)[nH]1` [A3.124] yielded an IC50 of 21.8 µM.
`O=C(C[N+](=O)[O-])C1=CC2OC=CC2N1` (centres unmarked) [A3.258] was tested, and the IC50 was 49.5 µM.
Molecule `Cc1ccc(/C=N/NC(=O)c2cc(C)oc2C)o1` [A3.263] has an IC50 of 50.2 µM.
Molecule `Cc1nc(NC(C)C(=O)O)c2nc(C)oc2n1` (centres unmarked) [A3.290] has an IC50 of 65.8 µM.
For `Cc1cc(C(=O)N/N=C/c2ccc(C)o2)[nH]n1` [A3.191], the IC50 was 31.8 µM.
Work on `COc1ccc(Cl)cc1C(=O)N/C(=C/c1ccco1)C(=O)N1CC2CC(C1)c1cccc(=O)n1C2` (centres unmarked) [A3.030] yielded an IC50 of 8.1 µM.
Work on `O=C(N/N=C/c1ccco1)c1cccc(NC(=O)c2ccc(F)cc2)c1` [A3.156] yielded an IC50 of 25.9 µM.
`O=C(N/N=C/c1ccco1)c1cccc(Br)c1` [A3.283] gave an IC50 of 62.7 µM.
In the case of `CN(C)c1ccc(C2C3C(=O)N(c4ccccc4)C(=O)C3ON2c2ccc(Cl)cc2)cc1` (centres unmarked) [A3.104], the IC50 is reported as 20 µM.
For `Cc1ccc(/C=N/NC(=O)c2ccc(O)cc2)o1` [A3.142], the IC50 was 23.4 µM.
With `Cc1nc(-c2ccc(Br)cc2)c(CC(=O)O)s1` [A3.313] the IC50 was 88.3 µM.
Molecule `O=C(N/N=C/c1ccco1)c1ccccc1` [A3.227] has an IC50 of 37.7 µM.
`COc1cc(Br)ccc1OCC(=O)N/N=C/C=C/c1ccco1` [A3.043] was tested, and the IC50 was 11 µM.
With `COc1ccccc1C(=O)N/N=C/c1ccc(C)o1` [A3.211] the IC50 was 34.7 µM.
`Cc1cc(C(=O)N/N=C/c2ccco2)[nH]n1` [A3.255] showed an IC50 of 48.2 µM.
`CC(/C=N/NC(=O)c1ccco1)=C\c1ccco1` [A3.168] was tested, and the IC50 was 27.5 µM.
`C(=C\c1ccco1)/c1nc2ccccc2[nH]1` [A3.176] was tested, and the IC50 was 28.7 µM.
With `COc1ccc(-c2nc(C)sc2CC(=O)O)cc1` [A3.111] the IC50 was 20.8 µM.
With `COc1ccc(/C=C(/NC(=O)c2ccccc2)C(=O)N/N=C\C=C\c2ccc(C)o2)cc1OC` [A3.081] the IC50 was 16.7 µM.
`O=C1/C(=C/C=C/c2ccco2)CCC/C1=C\C=C\c1ccco1` [A3.147] was tested, and the IC50 was 24.4 µM.
In the case of `O=C(CCn1nnc2ccccc21)N/N=C/c1ccco1` [A3.310], the IC50 is reported as 82.9 µM.
In the case of `COC(=O)c1cc(NC(=O)Cc2cccs2)cc(C(=O)OC)c1` [A3.117], the IC50 is reported as 21.2 µM.
`CC1SC(N/N=C/c2ccco2)=NC1=O` (centres unmarked) [A3.169] gave an IC50 of 27.7 µM.
Work on `CCc1cccc(CC)c1NC(=S)N/N=C1\C(=O)N(CN2CC(C)CC(C)C2)c2ccccc21` (centres unmarked) [A3.024] yielded an IC50 of 6.6 µM.
For `CC(=O)Nc1ccc(C(=O)N/N=C/c2ccc(C)o2)cc1` [A3.183], the IC50 was 29.7 µM.
With `O=C(COc1ccccc1)N/N=C/c1ccco1` [A3.312] the IC50 was 87.5 µM.
Work on `O=C(NCCc1ccccc1)/C(=C\c1ccco1)NC(=O)c1ccccc1` [A3.275] yielded an IC50 of 55.8 µM.
With `Cc1ccc(/C=N/NC(=O)c2ccccc2Cl)o1` [A3.084] the IC50 was 17.7 µM.
With `COCc1c(C(=O)N/N=C/c2ccc(C)o2)nnn1-c1nonc1N` [A3.053] the IC50 was 12.5 µM.

Same assay, conditions: Table 4, starred values = ID50; read-out: ID50 APN (values marked with *)
For `C/C(=N\NC(=O)c1ccn(C)n1)c1ccco1` [A4.186], the IC50 was 323 µM.
For `CC(C(=O)N/N=C/c1ccco1)n1nnc2ccccc21` (centres unmarked) [A4.176], the IC50 was 146 µM.
